Values after ≈ are worked out from the molar mass of the structure shown.
What was measured:
[1] = Inhibition of pig pancreatic group1 sPLA2 at 10 uM by liquid scintillation counting; design: species or system Sus scrofa
[2] = Cytotoxicity against human neutrophils by MTT assay; type: cell-based; details: neutrophil
[3] = Toxicity in Gambusia affinis; type: organism-based; details: in vivo
[4] = Toxicity in Artemia salina; type: organism-based; details: in vivo
[5] = molecular target: T1, Phospholipase A2, membrane associated (Homo sapiens, UniProt P14555); assay: Inhibition of human synovial group2 sPLA2 by liquid scintillation counting
T1 sequence (P14555 whole entry): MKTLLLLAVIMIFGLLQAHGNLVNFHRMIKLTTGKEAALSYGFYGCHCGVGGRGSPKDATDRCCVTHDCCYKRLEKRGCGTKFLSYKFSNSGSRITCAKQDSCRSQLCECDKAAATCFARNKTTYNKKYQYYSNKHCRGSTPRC

[6] = molecular target: T2, Phospholipase A2, membrane associated (Rattus norvegicus, UniProt P14423); assay: Inhibition of rat air pouch group2 sPLA2 by liquid scintillation counting
T2 sequence (P14423 whole entry): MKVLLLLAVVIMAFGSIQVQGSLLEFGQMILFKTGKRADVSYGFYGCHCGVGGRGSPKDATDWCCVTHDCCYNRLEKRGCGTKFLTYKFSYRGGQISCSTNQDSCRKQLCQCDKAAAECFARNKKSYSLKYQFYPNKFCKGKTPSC

[7] = molecular target: T3, Phospholipase A2 (Apis mellifera, UniProt P00630); assay: Inhibition of bee venom group3 sPLA2 by liquid scintillation counting
T3 sequence (P00630 whole entry): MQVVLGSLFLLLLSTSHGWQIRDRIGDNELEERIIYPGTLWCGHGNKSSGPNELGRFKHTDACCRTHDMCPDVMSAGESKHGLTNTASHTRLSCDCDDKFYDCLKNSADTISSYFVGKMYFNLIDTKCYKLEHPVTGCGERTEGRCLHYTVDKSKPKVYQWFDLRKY

[8] = Inhibition of pig pancreatic group1 sPLA2 by liquid scintillation counting; design: species or system Sus scrofa

| Compound | IC50 [1] [µM] | Activity [2] | LC50 [3] [µg/mL] | LC50 [4] [µg/mL] | IC50 [5] [µM] | IC50 [6] [µM] | IC50 [7] [µM] | IC50 [8] [µM] |
| --- | --- | --- | --- | --- | --- | --- | --- | --- |
| CC1=CCC[C@@H]2[C@@](C)(CCC3=CC[C@H](C4=CC(=O)O[C@H]4O)OC3)[C@@H](C)CC[C@@]12C [CACOSPONGIONOLIDE E] | 5.3 | Not Active | 1.01 (≈ 2.52 µM) | 1.29 (≈ 3.22 µM) | 1.4 | 7.8 | 2.8 | – |
| CC1=C(CC/C(C)=C/CCC2=CC[C@H](C3=CC(=O)O[C@H]3O)O[C@H]2O)C(C)(C)CCC1 [MANOALIDE] | 32.3 | Not Active | – | – | 3.9 | – | – | – |
| C[C@H]1CC[C@@]23C[C@]2(C)CCC[C@@H]3[C@@]1(C)CCC1=CC[C@H](C2=CC(=O)O[C@H]2O)OC1 [CACOSPONGIONOLIDE] | 14.4 | Not Active | – | – | 3 | – | 2.3 | – |
| C=C1CCC[C@H]2[C@](C)(CCC3=CCC(C4=CC(=O)OC4O)OC3)[C@H](C)CC[C@]12C (stereo partly drawn) [CACOSPONGIONOLIDE B] | 64.2 | Not Active | – | – | 4.3 | – | – | 4 |
